Experimental findings from PubChem BioAssay (NCI) are described below.

SMILES strings stand for the structures.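 All cell lines were grown in 96-well plates and treated with compound for 48 hours. GI50: concentration for 50% inhibition of growth. At the TGI there is no net growth.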 Where a SMILES comes first, the peptide text is derived from it. [ ]: non-standard residue; d: D form. Phe(4-Cl) = N[CH](Cc1ccc(Cl)cc1)C(=O)O Where only a bound is given, the exact number is not on record here.

Among the test systems are ACHN renal; MDA-MB-435; OVCAR-3 ovarian; SK-OV-3 ovarian; SNB-75 CNS; TK-10 renal; UO-31 renal; K-562 leukemia; NCI-H23 lung; SR leukemia.
Experiment in all cases: growth of human tumour cells (NCI), 48 h

On to `Fc1cc(F)c(COc2cc(Cn3cnc4c(Cl)nc(Cl)nc43)ccc2C23CC4CC(CC(C4)C2)C3)cc1F`, for which the GI50 in the test with ACHN renal is 17.1 µM; with MDA-MB-435, 17.3 µM; with OVCAR-3 ovarian it was 15.6 µM; in the test on SK-OV-3 ovarian, 22 µM; in the test with SNB-75 CNS, 21.7 µM; with TK-10 renal it was 17.1 µM. For the same compound, the GI50 in the test with UO-31 renal is 17.8 µM. The TGI with ACHN renal was 30.8 µM; in the test with MDA-MB-435, 33 µM; in the test with OVCAR-3 ovarian it was 30.2 µM; with SK-OV-3 ovarian, 43.3 µM; in the test on SNB-75 CNS it was 52.1 µM; in the test on TK-10 renal it was 31.1 µM. The compound further came in with a TGI in the test with UO-31 renal of 31.6 µM.
Take `COc1ccc(C(=O)c2cc(C)c(OC)c(C)c2)c(OC)c1N(C(=O)C(Cl)Cl)C(=O)C(Cl)Cl`: the GI50 with ACHN renal is 0.0699 µM; in the test on K-562 leukemia, 0.0487 µM; with MDA-MB-435 it was 0.021 µM; in the test on NCI-H23 lung it was 0.0909 µM; with OVCAR-3 ovarian it was 0.0357 µM; in the test with SK-OV-3 ovarian it was 0.052 µM. In addition, the values for the GI50 in the test on SNB-75 CNS, in the test on TK-10 renal and in the test with UO-31 renal were 0.0283 µM, above 79.8 µM and 0.0736 µM, respectively. For the same compound, the TGI was above 100 µM in the test on ACHN renal; above 100 µM in the test with K-562 leukemia; 0.0625 µM in the test on MDA-MB-435; above 100 µM in the test with NCI-H23 lung; above 100 µM in the test with SK-OV-3 ovarian; above 100 µM with SNB-75 CNS. Moreover, the TGI with TK-10 renal is above 100 µM; in the test with UO-31 renal, above 47.5 µM.
With `NCCCC[C@@H]1NC(=O)[C@H]2CCCN2C(=O)[C@H](Cc2ccccc2)NC(=O)[C@H](Cc2ccccc2)CNC1=O`, the GI50 with ACHN renal, in the test on K-562 leukemia, with MDA-MB-435, with NCI-H23 lung, with OVCAR-3 ovarian and in the test with SK-OV-3 ovarian was above 100 µM throughout. In addition, the GI50 in the test on SNB-75 CNS, with TK-10 renal and in the test with UO-31 renal was above 100 µM in each case. For the same compound, the TGI in the test on ACHN renal, in the test with K-562 leukemia, in the test on MDA-MB-435, in the test with NCI-H23 lung, in the test with OVCAR-3 ovarian and in the test with SK-OV-3 ovarian was above 100 µM each time. Moreover, the TGI in the test with SNB-75 CNS, in the test on TK-10 renal and with UO-31 renal was above 100 µM throughout.
On to `Clc1nc(Cl)c2ncn(Cc3cccc(COc4cccc(OCc5cccc(Cn6cnc7c(Cl)nc(Cl)nc76)c5)c4)c3)c2n1`, for which the GI50 was 54.5 µM in the test with ACHN renal; 71.9 µM in the test on K-562 leukemia; 13.8 µM in the test with MDA-MB-435; 54.5 µM in the test with NCI-H23 lung; 7.26 µM with OVCAR-3 ovarian; above 100 µM with SK-OV-3 ovarian. In addition, the GI50 in the test on SNB-75 CNS was above 100 µM; with TK-10 renal, 37.5 µM; in the test on UO-31 renal it was 66.4 µM. Further, the TGI with ACHN renal is above 100 µM; in the test with K-562 leukemia, above 100 µM; with MDA-MB-435, above 100 µM; in the test with NCI-H23 lung, above 100 µM; in the test on OVCAR-3 ovarian, 34.7 µM; in the test on SK-OV-3 ovarian, above 100 µM. The TGI in the test on SNB-75 CNS, in the test on TK-10 renal and in the test on UO-31 renal was above 100 µM throughout.
Take `CC(C)N(C(=O)C12CC3CC(CC(C3)C1)C2)C(C)C`: the TGI in the test with ACHN renal, in the test on K-562 leukemia, with NCI-H23 lung, with OVCAR-3 ovarian, with SK-OV-3 ovarian and in the test on SNB-75 CNS was above 50 µM in each case. Also, the TGI in the test on TK-10 renal and in the test on UO-31 renal was above 50 µM throughout.
Take `CC(=O)[CH-]C(=O)c1ccccc1.CC(=O)[CH-]C(=O)c1ccccc1.O=C([O-])c1ccc([O-])cc1.O=C([O-])c1ccc([O-])cc1.[Ti+4]`: the GI50 in the test with ACHN renal is 75 µM; with K-562 leukemia it was 33.5 µM; in the test on NCI-H23 lung, 66.2 µM; with OVCAR-3 ovarian, 33.4 µM; in the test with SK-OV-3 ovarian it was above 100 µM; in the test with SNB-75 CNS, 29.1 µM. In the test with UO-31 renal, the GI50 is 23.1 µM. The TGI with ACHN renal, with K-562 leukemia, with NCI-H23 lung, in the test with OVCAR-3 ovarian, with SK-OV-3 ovarian and with SNB-75 CNS was above 100 µM throughout. The TGI in the test on UO-31 renal was determined as 76.4 µM.
As for `C=CCCCCCCCCC(=O)NS(=O)(=O)c1ccccc1`, the TGI in the test on ACHN renal, in the test with K-562 leukemia, with NCI-H23 lung, in the test with OVCAR-3 ovarian, in the test on SK-OV-3 ovarian and in the test with SNB-75 CNS was above 100 µM throughout. In addition, the TGI in the test on TK-10 renal and in the test on UO-31 renal was above 100 µM in each case.
With `N#Cc1nc(C2OC(COC(=O)c3ccccc3)C(OC(=O)c3ccccc3)C2OC(=O)c2ccccc2)oc1N` (stereo not drawn), the TGI with ACHN renal, with K-562 leukemia, with NCI-H23 lung, in the test on OVCAR-3 ovarian, in the test on SK-OV-3 ovarian and in the test with SNB-75 CNS was above 100 µM each time. Moreover, the TGI was above 100 µM with TK-10 renal and 66.8 µM with UO-31 renal.
Regarding `Cc1ccc(N(C(=O)CC(=O)NN)C(=O)c2ccccc2Cl)cc1`, the TGI in the test with ACHN renal, in the test on K-562 leukemia, in the test with NCI-H23 lung, with OVCAR-3 ovarian, in the test on SK-OV-3 ovarian and in the test on SNB-75 CNS was above 100 µM in each case. Moreover, the TGI in the test on UO-31 renal is above 100 µM.
Consider `CC(C)(C)OC(=O)Cc1ccc2c(ccn2Cc2ccccc2)c1`, for which the TGI in the test on ACHN renal, with K-562 leukemia, in the test on NCI-H23 lung, in the test on OVCAR-3 ovarian, in the test with SK-OV-3 ovarian and in the test with SNB-75 CNS was above 100 µM each time. In addition, the TGI in the test on TK-10 renal and in the test with UO-31 renal was above 100 µM in each case.
As to `CC(O)C(NC(=O)C(Cc1ccccc1)NC(=O)C(NC(=O)C(CCCCN)NC(=O)C(Cc1c[nH]c2ccccc12)NC(=O)C(Cc1ccc(O)cc1)NC(=O)C(Cc1ccc(Cl)cc1)NC(=O)C(N)Cc1ccccc1)C(C)O)C(N)=O` (stereo not drawn) (H-F[Phe(4-Cl)]YWKTFT-NH2; configuration not given here), the TGI in the test on ACHN renal stood at 40.9 µM; with K-562 leukemia, 28.9 µM; in the test with NCI-H23 lung, 41.2 µM; in the test on OVCAR-3 ovarian it was 36.2 µM; in the test with SK-OV-3 ovarian, 46.4 µM; in the test with SNB-75 CNS, 37.4 µM. Also, the TGI with UO-31 renal came out at 37.5 µM.
Regarding `CCOC(=O)CN=c1nc(SC)sc2c(C(=O)OCC)nc(Sc3ccccc3)n12`, the TGI in the test with K-562 leukemia, in the test with OVCAR-3 ovarian, with SK-OV-3 ovarian, in the test on SR leukemia, in the test with TK-10 renal and with UO-31 renal was above 100 µM in each case.
